Test results as given in ChEMBL document CHEMBL5154737, “Semisynthesis and biological evaluation of (+)-sclerotiorin derivatives as antitumor agents for the treatment of hepatocellular carcinoma” (Eur J Med Chem, 2022).
The source made the active and inactive calls. The calls are words filed in the database; no cut-off is given here.

Experiments:
[1] = tested on: Bel-7402; assay: Effect on AKT signalling pathway in human Bel-7402 cells assessed as decrease in phosphorylated-AKT level upto 2.5 uM incubated for 24 hrs by Western blot analysis; type: functional, cell-based
[2] = tested on: Bel-7402; assay: Effect on ERK signalling pathway in human Bel-7402 cells assessed as increase in phosphorylated-ERK level upto 2.5 uM incubated for 24 hrs by Western blot analysis; type: functional, cell-based
[3] = Toxicity in ICR mouse assessed as change in mean corpuscular volume at 100 mg/kg, ip qd (reference value: 51.3 fL); type: organism-based; details: in vivo
[4] = tested on: Bel-7402; assay: Induction of apoptosis in human Bel-7402 cells assessed as early apoptotic cells at 0.313 uM incubated for 24 hrs by Annexin V and dead cell assay kit (reference value: 3.75 %); type: functional
[5] = Toxicity in ICR mouse assessed as change in mean corpuscular hemoglobin level at 100 mg/kg, ip qd (reference value: 17.5 pg); type: organism-based; details: in vivo
[6] = Acute toxicity in ICR mouse assessed as change in amount of food intake at 100 to 500 mg/kg, ip; type: organism-based; details: in vivo, dose 100-500 mg/kg
[7] = tested on: Bel-7402; assay: Antitumor activity against human Bel-7402 cells xenografted in BALB/c nude mouse assessed as reduction in tumor growth at 20 mg/kg, ip qd measured every 2 days for 14 days; type: functional, organism-based; details: time 14.0 day
[8] = tested on: PANC-1; assay: Cytotoxicity against human PANC-1 cells assessed as reduction in cell viability incubated for 72 hrs by MTT assay; type: functional, cell-based; details: PANC-1, 72 h
[9] = tested on: Bel-7402; assay: Induction of apoptosis in human Bel-7402 cells assessed as early apoptotic cells at 5 uM incubated for 24 hrs by Annexin V and dead cell assay kit (reference value: 3.75 %); type: functional
[10] = tested on: Bel-7402; assay: Induction of apoptosis in human Bel-7402 cells assessed as viable cells at 0.313 uM incubated for 24 hrs by Annexin V and dead cell assay kit (reference value: 91.00%); type: functional; details: read-out: Activity
[11] = Toxicity in ICR mouse assessed as change in lymphocyte level at 100 mg/kg, ip qd (reference value: 75.2 %); type: organism-based; details: in vivo
[12] = Toxicity in ICR mouse assessed as change in mean platelet volume at 100 mg/kg, ip qd (reference value: 5.6 fL); type: organism-based; details: in vivo
[13] = tested on: Bel-7402; assay: Induction of apoptosis in human Bel-7402 cells assessed as early apoptotic cells at 2.5 uM incubated for 24 hrs by Annexin V and dead cell assay kit (reference value: 3.75 %); type: functional
[14] = tested on: Bel-7402; assay: Induction of apoptosis in human Bel-7402 cells assessed as early apoptotic cells at 2.5 uM incubated for 24 hrs by Annexin V and Dead cell kit assay (reference value: 3.7 %); type: functional
[15] = Tmax in Sprague-Dawley rat at 20 mg/kg, ip measured for 0.03 to 24 hrs by UPLC-MS analysis; type: ADME, organism-based; details: in vivo, time 0.03-24 hrs
[16] = Sub-chronic toxicity in ICR mouse assessed as behavioural change at 100 mg/kg/day, ip for 26 days; type: organism-based; details: in vivo, 624 h, time 26 day
[17] = Drug elimination in mouse bearing tumor measured after 24 hr by ICG dye based fluorescence imaging; type: ADME; details: in vivo
[18] = Toxicity in ICR mouse assessed as change in monocyte level at 100 mg/kg, ip qd (reference value: 3.2 %); type: organism-based; details: in vivo
[19] = tested on: Bel-7402; assay: Induction of apoptosis in human Bel-7402 cells assessed as viable cells at 2.5 uM incubated for 24 hrs by Annexin V and Dead cell kit assay (reference value: 90.82 %); type: functional; details: read-out: Activity
[20] = tested on: Bel-7402; assay: Induction of apoptosis in human Bel-7402 cells assessed as late apoptotic cells at 2.5 uM incubated for 24 hrs in presence of U0126 by Annexin V and Dead cell kit assay (reference value: 3.85 %); type: functional
[21] = tested on: Bel-7402; assay: Disruption of mitochondrial membrane potential in human Bel-7402 cells incubated for 24 hrs by Rho-123 staining based flow cytometry analysis; type: functional, cell-based; details: dose <= 5.0 µM, DDE = dose-dependent effect
[22] = Toxicity in BALB/c nude mouse xenografted with Bel-7402 cells assessed as behavioural change at 20 mg/kg, ip qd; type: organism-based; details: in vivo
[23] = tested on: Bel-7402; assay: Induction of apoptosis in human Bel-7402 cells assessed as viable cells at 2.5 uM incubated for 24 hrs by Annexin V and dead cell assay kit (reference value: 91.00%); type: functional; details: read-out: Activity
[24] = tested on: Bel-7402; assay: Upregulation of total protein ubiquitination level in human Bel-7402 cells by Western blot analysis; type: functional, cell-based; details: dose <= 10.0 µM, DDE = dose-dependent effect
[25] = tested on: Bel-7402; assay: Cytotoxicity against human Bel-7402 cells assessed as inhibition of cell growth incubated for 72 hrs by MTT assay; type: functional, cell-based; details: dose 5.0 µM, DDE = dose-dependent effect

With `CC[C@H](C)/C=C(C)/C=C/C1=CC2=C(Cl)C(=O)[C@](C)(O)C(=O)C2=CN1Cc1ccc(OC(F)(F)F)cc1` the Activity [1] was “Active”, the Activity [2] was “Active” and the Activity [3] was 55 fL. For the same compound, the Activity [4] was 3.75%, the Activity [5] was 16.8 pg and the Activity [6] was “Non-Toxic”. For the same compound, the TGI [7] was “Active”, the IC50 [8] was 2290 nM and the Activity [9] was 8.1%. It also gave a viability at 0.313 µM [10] of 94.3%, an Activity [11] of 50.3% and an Activity [12] of 6.7 fL. For the same compound, the Activity [13] was 16.55%, the Activity [14] was 25.8% and the Tmax [15] was 45 min. The Activity [16] was “Non-Toxic”, the Drug excretion [17] was “Metabolite_Detected” and the Activity [18] was 8.1%. The viability at 2.5 µM [19] was 25.1%, the Activity [20] was 36.9% and the Activity [21] was “Dde”. The Activity [22] was “Non-Toxic”, the viability at 2.5 µM [23] was 44.9% and the Activity [24] was “Dde”. For the same compound, the Activity [25] was “Dde”.
